Results: publication PMC11647683, “Structural Aspects of Mycobacterium tuberculosis DNA Gyrase Targeted by Novel Bacterial Topoisomerase Inhibitors” (ACS Medicinal Chemistry Letters, 2024)
Read-outs that look alike come from different tables or passages of the source.

Legend:
[1] = biological target: T1, M. tuberculosis DNA gyrase (Mycobacterium tuberculosis, UniProt P9WG47); test: biochemical; conditions: M. tuberculosis DNA gyrase supercoiling, 100 nM compound
T1 construct: purchased Inspiralis (Norwich, UK)

[2] = biological target: T1, M. tuberculosis DNA gyrase; test: biochemical; type: biochemical
M. tuberculosis H37Rv [3] = test: microbe, parasite or virus in culture; type: cell-based; conditions: Mycobacterium tuberculosis; for IC50: read-out: Antituberculosis activity M. tuberculosis H37Rv IC50; for IC90: read-out: Antituberculosis activity M. tuberculosis H37Rv IC90
hERG = hERG (Homo sapiens, UniProt Q12809)
M. tuberculosis H37Rv [4] = conditions: calculated from the published MIC value ref 26; cited from earlier work
[5] = M. tuberculosis gyrase supercoiling IC50, Assay 1, Assay 1 (single determination)
[6] = M. tuberculosis gyrase supercoiling IC50, Assay 2, Assay 2 (single determination)
[7] = supercoiling assay, mean of two independent measurements ± SD, read-out: Enzyme inhibition M. tuberculosis DNA gyrase IC50
[8] = reference wild-type strain, 90% inhibition of bacteria growth, mean of two independent measurements ± SD
[9] = Assay 1 (single determination), read-out: M. tuberculosis gyrase supercoiling IC50, Assay 1
[10] = Assay 2 (single determination), read-out: M. tuberculosis gyrase supercoiling IC50, Assay 2

T1 sequence (P9WG45 whole entry): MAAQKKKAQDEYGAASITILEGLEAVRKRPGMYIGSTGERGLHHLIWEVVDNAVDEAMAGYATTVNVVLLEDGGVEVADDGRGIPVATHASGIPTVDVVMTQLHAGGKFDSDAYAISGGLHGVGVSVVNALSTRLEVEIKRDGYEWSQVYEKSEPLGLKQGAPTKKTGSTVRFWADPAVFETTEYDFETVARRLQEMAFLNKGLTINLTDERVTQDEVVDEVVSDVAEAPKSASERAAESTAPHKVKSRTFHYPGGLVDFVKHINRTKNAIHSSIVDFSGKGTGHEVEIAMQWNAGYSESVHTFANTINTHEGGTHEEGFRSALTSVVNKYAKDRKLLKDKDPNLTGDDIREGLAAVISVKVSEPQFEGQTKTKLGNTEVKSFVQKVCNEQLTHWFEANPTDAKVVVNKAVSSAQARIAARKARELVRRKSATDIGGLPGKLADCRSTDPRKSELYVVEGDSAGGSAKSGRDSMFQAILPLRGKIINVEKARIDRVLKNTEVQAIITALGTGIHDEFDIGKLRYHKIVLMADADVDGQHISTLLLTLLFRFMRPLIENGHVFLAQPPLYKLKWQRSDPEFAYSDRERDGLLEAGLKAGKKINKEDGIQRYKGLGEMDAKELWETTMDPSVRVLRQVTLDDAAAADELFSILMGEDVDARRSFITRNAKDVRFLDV
T1 sequence (P9WG47 whole entry): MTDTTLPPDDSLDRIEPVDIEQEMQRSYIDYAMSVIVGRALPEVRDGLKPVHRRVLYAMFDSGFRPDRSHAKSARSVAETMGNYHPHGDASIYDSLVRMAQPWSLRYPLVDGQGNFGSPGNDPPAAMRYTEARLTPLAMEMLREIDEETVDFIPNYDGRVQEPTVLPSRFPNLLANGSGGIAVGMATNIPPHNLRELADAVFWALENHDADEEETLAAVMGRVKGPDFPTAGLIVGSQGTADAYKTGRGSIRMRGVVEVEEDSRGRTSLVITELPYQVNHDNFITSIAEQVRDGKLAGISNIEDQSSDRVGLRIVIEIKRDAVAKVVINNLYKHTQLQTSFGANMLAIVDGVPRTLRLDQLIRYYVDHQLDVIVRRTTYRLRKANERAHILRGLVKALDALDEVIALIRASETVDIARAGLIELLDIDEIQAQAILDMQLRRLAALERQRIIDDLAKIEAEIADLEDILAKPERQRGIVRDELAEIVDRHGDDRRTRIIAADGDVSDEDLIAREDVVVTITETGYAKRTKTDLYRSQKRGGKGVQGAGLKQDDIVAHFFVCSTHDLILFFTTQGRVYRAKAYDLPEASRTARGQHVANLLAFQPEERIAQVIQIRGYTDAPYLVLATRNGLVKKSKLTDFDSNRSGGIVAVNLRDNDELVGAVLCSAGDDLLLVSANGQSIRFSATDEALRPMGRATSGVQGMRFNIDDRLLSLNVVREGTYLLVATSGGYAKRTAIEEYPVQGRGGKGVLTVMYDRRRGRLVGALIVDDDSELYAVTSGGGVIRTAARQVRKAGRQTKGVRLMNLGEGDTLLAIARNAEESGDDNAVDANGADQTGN
hERG, sequence (Q12809 whole entry): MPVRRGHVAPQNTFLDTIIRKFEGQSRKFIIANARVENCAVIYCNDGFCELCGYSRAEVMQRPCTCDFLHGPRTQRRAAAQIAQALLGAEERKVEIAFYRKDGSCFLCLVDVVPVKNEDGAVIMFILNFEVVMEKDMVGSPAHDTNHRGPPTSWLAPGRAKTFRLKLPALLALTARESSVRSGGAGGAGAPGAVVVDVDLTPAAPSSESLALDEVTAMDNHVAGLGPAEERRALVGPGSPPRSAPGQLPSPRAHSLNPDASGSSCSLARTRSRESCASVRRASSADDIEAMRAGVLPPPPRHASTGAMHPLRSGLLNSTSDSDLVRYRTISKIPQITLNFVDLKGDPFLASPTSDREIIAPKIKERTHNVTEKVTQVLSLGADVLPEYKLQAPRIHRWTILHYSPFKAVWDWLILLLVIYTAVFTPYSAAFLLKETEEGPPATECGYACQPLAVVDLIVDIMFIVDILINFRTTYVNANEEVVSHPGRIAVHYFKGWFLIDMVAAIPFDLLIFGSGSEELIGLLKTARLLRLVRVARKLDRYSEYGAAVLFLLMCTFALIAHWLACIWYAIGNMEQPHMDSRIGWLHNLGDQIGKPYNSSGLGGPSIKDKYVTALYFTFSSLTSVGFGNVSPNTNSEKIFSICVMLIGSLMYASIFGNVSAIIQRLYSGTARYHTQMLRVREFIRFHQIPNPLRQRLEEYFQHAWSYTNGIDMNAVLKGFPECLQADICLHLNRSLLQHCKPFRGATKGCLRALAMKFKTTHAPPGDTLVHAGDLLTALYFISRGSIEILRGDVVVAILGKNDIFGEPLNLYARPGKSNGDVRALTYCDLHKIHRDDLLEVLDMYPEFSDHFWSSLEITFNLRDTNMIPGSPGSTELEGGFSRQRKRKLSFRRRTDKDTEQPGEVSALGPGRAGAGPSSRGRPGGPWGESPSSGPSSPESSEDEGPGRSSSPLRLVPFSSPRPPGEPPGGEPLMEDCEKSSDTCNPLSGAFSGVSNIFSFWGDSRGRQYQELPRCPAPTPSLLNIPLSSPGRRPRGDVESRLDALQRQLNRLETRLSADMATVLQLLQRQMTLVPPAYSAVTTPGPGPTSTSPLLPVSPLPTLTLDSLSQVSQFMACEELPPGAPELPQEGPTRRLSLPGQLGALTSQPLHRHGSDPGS

Compound	inhibition at 0.1 µM [1]	further results
COc1ccc2nccc(CCN3CCC(NCc4ccc(Br)cc4)CC3)c2n1 [Compound 16]	64.1%	–
COc1ccc2nccc(CCN3CCC(NCc4ccc(I)c(F)c4)CC3)c2n1 [Compound 2]	80.4%	IC50 [2, 5]: 155 nM; IC50 [2, 6]: 56 nM; IC50 [2, 7]: 105 ± 50 nM; IC50 (M. tuberculosis H37Rv [3]): 200 ± 25 nM; IC90 (M. tuberculosis H37Rv [3]; [8]): 270 ± 45 nM; IC50 (hERG): 243 nM
COc1ccc2nccc(CCN3CCC(NCc4cc(F)c(Br)cc4F)CC3)c2n1 [Compound 20]	43.1%	–
COc1ccc2nccc(C(O)CC3CCC(NCc4ccc(Br)cc4)CC3)c2n1 (stereo not shown) [Compound 36]	24.9%	–
COc1ccc2nccc(CCN3CCC(NCc4ccc(Br)c(F)c4F)CC3)c2n1 [Compound 19]	29.9%	–
COc1ccc2nccc(CCN3CCC(NCc4ccc(I)cc4)CC3)c2n1 [Compound 17]	63.7%	–
COc1ccc2nccc(OCC3CCC(NCc4ccc(Br)cc4)CC3)c2n1 (stereo not shown) [Compound 25]	0%	–
COc1ccc2nccc(OCC3CCC(NCc4ccc(I)c(F)c4)CC3)c2n1 (stereo not shown) [Compound 29]	27.8%	–
O=c1ccc2ncc(=O)n3c2n1C[C@H]3CN1CCC(NCc2cc3c(cn2)OCCC3)CC1 [Gepotidacin, reference compound]	–	IC50 (hERG): > 30000 nM; MIC (M. tuberculosis H37Rv [4]): g MIC = 0.86 μM value for Gepotidacin was calculated from the published MIC value.[26] “/” values were not found in the literature.
COc1ccc2nccc(CCN3CCC(NCc4ccc(I)c(F)c4F)CC3)c2n1 [Compound 21]	14.4%	–
COc1ccc2nccc(OCC3CCC(NCc4ccc(I)cc4)CO3)c2n1 (stereo not shown) [Compound 32]	0.6%	–
COc1ccc2nccc(CCN3CCC(NCc4cnn(C(C)C)c4)CC3)c2n1 [Compound 9]	7.45%	–
COc1ccc2nccc(CCN3CCC(NCc4cc(F)c(Br)c(F)c4)CC3)c2n1 [Compound 4]	99.8%	IC50 [2, 9]: 89 nM; IC50 [2, 10]: 69 nM; IC50 [2, 7]: 79 ± 10 nM; IC90 (M. tuberculosis H37Rv [3]; [8]): 62 ± 4 nM
C[C@H]1COc2c(N3CCN(C)CC3)c(F)cc3c(=O)c(C(=O)O)cn1c23 [Levofloxacin, reference compound]	–	IC50 (M. tuberculosis H37Rv [3]): 590 nM; IC90 (M. tuberculosis H37Rv [3]): 980 nM
COc1ccc2nccc(OCC3CCC(NCc4ccc(Cl)cc4)CO3)c2n1 (stereo not shown) [Compound 30]	0%	–
COc1ccc2nccc(OCC3CCC(NCc4ccc(I)cc4)CC3)c2n1 (stereo not shown) [Compound 26]	9.68%	–
COc1ccc(CNC2CCN(CCc3ccnc4ccc(OC)nc34)CC2)cn1 [Compound 12]	0%	–
COc1ccc2nccc(OCC3CCC(NCc4ccc(Cl)cc4)CC3)c2n1 (stereo not shown) [Compound 24]	4.7 ± 4.7%	–
COc1ccc2nccc(CCN3CCC(NCc4ccc(Cl)nc4)CC3)c2n1 [Compound 22]	27.3%	–

Compound	inhibition at 0.1 µM [1]	further results
COc1ccc2nccc(CCN3CCC(NCc4ccc(N(C)C)cc4)CC3)c2n1 [Compound 11]	0%	–
COc1ccc2nccc(OCC3CCC(NCc4cc(F)c(Cl)c(F)c4)CC3)c2n1 (stereo not shown) [Compound 27]	41.6%	–
COc1ccc2nccc(OCC3CCC(NCc4cc(F)c(Cl)c(F)c4)CO3)c2n1 (stereo not shown) [Compound 34]	4.3%	–
COc1ccc2nccc(CCN3CCC(NCc4ccc(Cl)cn4)CC3)c2n1 [Compound 23]	0%	–
COc1ccc2nccc(CCN3CCC(NCc4ccc(F)cc4)CC3)c2n1 [Compound 14]	0%	–
COc1ccc2nccc(CCN3CCC(NCc4ccc(Cl)cc4)CC3)c2n1 [Compound 15]	44.8%	–
C=CCn1cc(CNC2CCN(CCc3ccnc4ccc(OC)nc34)CC2)cn1 [Compound 10]	5.13%	–
COc1ccc2nccc(OCC3CCC(NCc4ccc(Br)cc4)CO3)c2n1 (stereo not shown) [Compound 31]	0%	–
COc1ccc2nccc(CCN3CCC(NCc4ccc(OC(F)F)c(O)c4)CC3)c2n1 [Compound 7]	3.47%	–
COc1ccc2nccc(CCN3CCC(NCc4ccc(C(F)(F)F)nc4)CC3)c2n1 [Compound 8]	27.4%	–
COc1ccc2nccc(CCN3CCC(NCc4ccc(OC(F)F)c(OC)c4)CC3)c2n1 [Compound 6]	0%	–
COc1ccc2nccc(OCC3CCC(NCc4ccc(I)c(F)c4)CO3)c2n1 (stereo not shown) [Compound 35]	20.3%	–
COc1ccc2nccc(CCN3CCC(NCc4ccccc4)CC3)c2n1 [Compound 13]	0%	–
COc1ccc2nccc(CCN3CCC(NCc4cc(F)c(Cl)c(F)c4)CC3)c2n1 [Compound 3]	90.2%	IC50 [2, 9]: 93 nM; IC50 [2, 10]: 91 nM; IC50 [2, 7]: 92 ± 1 nM; IC50 (M. tuberculosis H37Rv [3]): 71 ± 3 nM; IC90 (M. tuberculosis H37Rv [3]; [8]): 92 ± 8 nM; IC50 (hERG): 436 nM
COc1ccc2nccc(C(O)CC3CCC(NCc4cc(F)c(Br)c(F)c4)CC3)c2n1 (stereo not shown) [Compound 5]	95%	IC50 [2, 9]: 97 nM; IC50 [2, 10]: 96 nM; IC50 ([2]; average of Assay 1 and Assay 2, read-out: M. tuberculosis gyrase supercoiling IC50, Average): 96 nM; IC50 [2, 7]: 96 nM; IC90 (M. tuberculosis H37Rv [3]; [8]): 280 ± 65 nM
COc1ccc2nccc(CCN3CCC(NCc4ccc(Br)c(F)c4)CC3)c2n1 [Compound 1]	84.1%	IC50 [2, 5]: 397 nM; IC50 [2, 6]: 330 nM; IC50 [2, 7]: 363 ± 34 nM; IC50 (M. tuberculosis H37Rv [3]): 180 ± 45 nM; IC90 (M. tuberculosis H37Rv [3]; [8]): 200 ± 50 nM; IC50 (hERG): 455 nM
COc1ccc2nccc(CCN3CCC(NCc4ccc(Cl)c(F)c4)CC3)c2n1 [Compound 18]	52.2%	–
COc1ccc2nccc(OCC3CCC(NCc4cc(F)c(Br)c(F)c4)CC3)c2n1 (stereo not shown) [Compound 28]	23.8%	–
COc1ccc2nccc(OCC3CCC(NCc4cc(F)c(Br)c(F)c4)CO3)c2n1 (stereo not shown) [Compound 33]	19.3%	–
